By IC50 is commonly meant the concentration at which inhibition is half-maximal. Broadly, the viability is a per cent measure of how many cells are alive, often set against a control. The CC50 is the concentration at which the toxic effect on the cells reaches its halfway point. Low values mean greater toxicity to the cells, high ones lower toxicity to the cells. The inhibition is how much of the control response was suppressed.

Converted amounts (≈) assume the structure as drawn. Read-outs that look alike come from different tables or passages of the source.

In series [1] the test system is PC 148 (subtype A) HIV-1 virus. The series can be described thus: microbe, parasite or virus in culture. In kind it is cell-based. To be noted: Human immunodeficiency virus 1, TZM-bl.
The test system of series [2] is MC 2297 (subtype A) HIV-1 virus. The series can be described thus: microbe, parasite or virus in culture. The class given is cell-based. To be noted: Human immunodeficiency virus 1, TZM-bl.
In series [3] the test system is YU2 (subtype B) HIV-1 virus. Nature of the series: microbe, parasite or virus in culture. In kind it is cell-based. To be noted: Human immunodeficiency virus 1, TZM-bl.
Series [4] has as its system PC 60 (subtype D) HIV-1 virus. The series can be described thus: microbe, parasite or virus in culture. The class given is cell-based. As to conditions: Human immunodeficiency virus 1, TZM-bl.
The subject of series [5] is pNL4.3 (subtype B) HIV-1 virus. Nature of the series: Luciferase-based antiviral assay, pNL4.3 (wild type). In kind it is cell-based.
The subject of series [6] is CM9 (subtype C) HIV-1 virus. Nature of the series: microbe, parasite or virus in culture. The class given is cell-based. As to conditions: Human immunodeficiency virus 1, TZM-bl.
A short description of series [7]: MTT cell viability and cytotoxicity assay. In kind it is cell-based. As to conditions: human, TZM-bl cells. How it is done: A. alternata crude extract cell cytotoxicity and viability were assessed by MTT (3-[4, 5-dimethylthiazol-2-yl]-2, 5-diphenyltetrazolium bromide) cell viability assay using the CYQUANT MTT cell proliferation kit (Thermo Fisher Scientific, Waltham, MA, USA). A 96-well culture plate was seeded with 15,000 TZM-bl cells/200 µL of DMEM per well and incubated at 37 °C with 5% CO2.). Following this, 10 µL of the drug control azidothymidine (NIH AIDS Research and Reference Reagent Programme) and the A. alternata crude extract were diluted five-fold, and control wells where neither the control drug AZT nor the crude extract was added were followed by incubation at 37 °C with 5% CO2 and 95% humidity for 48 h. Ten microlitres of 12 mM of MTT solution was added to each well and incubated for 4 h at 37 °C with 5% CO2 and 95% humidity. Then, 50 µL of 100% DMSO were added to each well and incubated for 10 min. The absorbance was then measured at a wavelength of 540 nm using the Victor Nivo microplate reader (PerkinElmer, Waltham, MA, USA). The percentage of cell viability was calculated using the formula below:%Cell viability = (Sample absorbance − media control)/(Mean media control absorbance) × 100
The drug control azidothymidine and A. alternata crude extract CC50 (50% cytotoxic concentration) were determined using GraphPad Prism software (v.5) by dose-response curve.

The subject of series [8] is PC 178 (subtype D) HIV-1 virus. Nature of the series: microbe, parasite or virus in culture. In kind it is cell-based. To be noted: Human immunodeficiency virus 1, TZM-bl.
Series [9] concerns CM7 (subtype C) HIV-1 virus. The series can be described thus: microbe, parasite or virus in culture. In kind it is cell-based. As to conditions: Human immunodeficiency virus 1, TZM-bl.
Series [10] concerns integrase drug-resistant strain S230R. To be noted: previously reported; cited from earlier work.
The test system is the same in series [11]. Nature of the series: microbe, parasite or virus in culture. To be noted: for IC50: Human immunodeficiency virus 1, TZM-bl, read-out: IC50 (S230R); for inhibition at 300 µg/mL: Human immunodeficiency virus 1, read-out: inhibition of HIV replication; for fold change (FC) S230R: drug-resistant strain IC50/wild-type IC50. In kind it is cell-based, HIV-1.
Series [12] concerns integrase drug-resistant strain T66K. Nature of the series: microbe, parasite or virus in culture. The class given is cell-based, HIV-1. To be noted: for IC50: Human immunodeficiency virus 1, TZM-bl, read-out: IC50 (T66K); for inhibition at 300 µg/mL: Human immunodeficiency virus 1, read-out: inhibition of HIV replication; for fold change (FC) T66K: drug-resistant strain IC50/wild-type IC50.

The test system is the same in series [13]. Details: method as in PMID 18625269. As to conditions: previously reported; cited from earlier work.
The mark [14] stands for this setting: Human immunodeficiency virus 1, read-out: IC50 (WT).

As to `Cc1cn([C@H]2C[C@H](N=[N+]=[N-])[C@@H](CO)O2)c(=O)[nH]c1=O` [Azidothymidine, azidothymidine], the IC50 in series [1] was 0.0403 ± 0.002 µg/mL (≈ 0.151 µM); in series [2], 0.0138 ± 0.001 µg/mL (≈ 0.0518 µM); in series [3], 0.0423 ± 0.004 µg/mL (≈ 0.158 µM); in [4], 0.078 ± 0.005 µg/mL (≈ 0.292 µM); in series [5] (Human immunodeficiency virus 1, TZM-bl) it was 0.0338 ± 0.004 µg/mL (≈ 0.126 µM); in series [6], 0.0924 ± 0.007 µg/mL (≈ 0.346 µM). Further, the figures for the IC50 in [8] and in series [9] were 0.0813 ± 0.003 µg/mL (≈ 0.304 µM) and 0.058 ± 0.009 µg/mL (≈ 0.217 µM), respectively. The viability at 48 h in series [7] was above 80%. Besides, it took 385 ± 6.29 µg/mL (≈ 1440 µM) to reach half-maximal cytotoxicity in [7] (48 h, triplicate) (CC50 at 48 h).
Regarding `Cc1nnc(C(=O)NC(C)(C)c2nc(C(=O)NCc3ccc(F)cc3)c(O)c(=O)n2C)o1` [Raltegravir, raltegravir], in series [10], the “FC in susceptibility conferred by S230R mutation” value was 1.52. For the same molecule, the IC50 in series [5] (setting [14]) is 0.0364 ± 0.001 µg/mL (≈ 0.082 µM). Besides, in [11], the IC50 came to 0.0475 ± 0.0016 µg/mL (≈ 0.107 µM), the inhibition at 300 µg/mL came out at 100% and the “fold change (FC) S230R” value is recorded as 1.305. In series [12], the IC50 amounted to 0.479 ± 0.078 µg/mL (≈ 1.08 µM), the inhibition at 300 µg/mL came out at 100% and the “fold change (FC) T66K” value came out at 13.15. The “FC conferred by T66K mutation” value in series [13] is given as 9.6.
In the case of `C[C@@H]1CCO[C@H]2Cn3cc(C(=O)NCc4ccc(F)cc4F)c(=O)c(O)c3C(=O)N12` [Dolutegravir, dolutegravir], the “FC in susceptibility conferred by S230R mutation” value in series [10] was 3.85. Moreover, the 50% inhibitory concentration (IC50) in series [5] (setting [14]) was determined as 0.175 ± 0.019 µg/mL (≈ 0.418 µM). Moreover, in series [11], the IC50 stood at 0.383 ± 0.04 µg/mL (≈ 0.914 µM), the inhibition at 300 µg/mL came out at 100% and the “fold change (FC) S230R” value is listed as 2.166. In series [12], the IC50 was 0.327 ± 0.031 µg/mL (≈ 0.78 µM), the inhibition at 300 µg/mL turned out to be 100% and the “fold change (FC) T66K” value stood at 1.864. In addition, the “FC conferred by T66K mutation” value in series [13] is on record as 2.

Source of the values: paper PMC11859181, “Alternaria alternata (Fr) Keissl Crude Extract Inhibits HIV Subtypes and Integrase Drug-Resistant Strains at Different Stages of HIV Replication” (Pharmaceuticals, 2025).
